Where no end group is shown, it is not given here. [ ]: non-standard residue; d: D form.
B2: His6-Q9I5H3 (natural protein)
chain: MRILLVEDHPQLAESVVQALKGAGWTVDLLQDGVAADLALASEEYALAILDVGLPRMDGFEVLARLRGRGKTLPVLMLTARGEVKDRVHGLNLGADDYLAKPFELSELEARVKALLRRSVLGGEQLQRCGALVYDLGTRRFSLDEQPLTLTSREQAVLEAMIARPGRVMSKEQLAAQVFGLDEEASADAIEIYVHRLRKKLEGGAVRIVTFRGLGYLLEAQGD
notes: also called recombinant Q9I5H3 protein; PA0756; source: E. coli BL21 (pET28a), purified (His-Trap FF IMAC; gel filtration on Superdex 75)

Tests used:
Q9I5H3 = experiment: Fluorescence binding titration of Q9I5H3 dimer with Esc(1-21)-1c; parameters: species or system P. aeruginosa; settings: intrinsic protein fluorescence, λexc 280 nm, emission 337 nm; 35 μM Q9I5H3 dimer, peptide 1.5 to 50 µM; 50 mM Tris-HCl pH 8.0, 150 mM NaCl, 20 °C; duplicate; one site specific binding fit; read-out: dissociation constant of the Esc(1-21)-1c–Q9I5H3 complex
Procedure: The interaction of the Esc(1-21)-1c peptide with Q9I5H3 was experimentally evaluated by fluorescence-based binding experiments. The dimeric form of the Q9I5H3 protein, purified by gel filtration, was titrated with increasing concentrations of Esc(1-21)-1c, and changes in the fluorescence emission of the protein were monitored (Figure 5).
Fluorescence experiments were performed on a Fluoromax-4 spectrofluorometer from Horiba Scientific, Piscataway, NJ, USA, using 1 cm optical path-length quartz cell under controlled temperature conditions (Peltier control system at 20 °C). Titrations were carried out in 50 mM Tris-HCl, pH 8.0 and 150 mM NaCl. Excitation wavelength used for the fluorescence titrations was 280 nm, and the spectra were recorded in the range 300–500 nm (slit 3 nm). Titrations were carried out at a fixed concentration (35 μM) of Q9I5H3 by adding increasing amounts of Esc(1-21)-1c peptide (from 1.5 to 50 µM), and the fluorescence emission was monitored at 337 nm. The experiments were performed in duplicate. The change in the fluorescence intensity was reported as a function of the peptide concentration and the data fitted with the “one site specific binding” equation of GraphPad Prism 9 (GraphPad Software LLC, La Jolla, CA, USA).

Q9I5H3–DNA complex = experiment: EMSA competition assay, Q9I5H3 binding to MexAB–OprM promoter DNA duplex; format: biochemical, P. aeruginosa; settings: 30 μM Q9I5H3 pre-incubated with peptide (50 to 250 μM) 10 min at 25 °C, then 0.05 µM target DNA duplex for 20 min; 1.5% agarose gel, GelRed
Procedure: The putative effect of the Esc(1-21)-1c peptide on the Q9I5H3–DNA interaction was investigated by a competition assay in which the recombinant Q9I5H3 protein was pre-incubated with increasing concentrations of the peptide before adding the DNA probe. The protein–DNA complexes in the presence of different concentrations of Esc(1-21)-1c were again examined by EMSA.
The interaction of Q9I5H3 protein with DNA was investigated by EMSA experiments using the target DNA duplex as well as a control duplex-forming sequence generally used as a model of standard B-DNA duplex, the so-called Dickerson dodecamer (Supplementary Table S1). Sense and antisense oligonucleotides were annealed by incubation at 95 °C for 5 min and then gradual cooling to room temperature. Different concentrations of proteins were incubated with the DNA duplexes (0.05 µM) for 30 min at 25 °C in 20 µL of 25 mM HEPES pH 7.6, containing 50 mM KCl, 12.5 mM MgCl2, 1 mM DTT, 20% glycerol, 0.1% Triton.
For the assays, 30 μM of protein was pre-incubated with increasing concentrations of Esc(1-21)-1c for 10 min at 25 °C. Following this pre-incubation, the DNA duplex was added, and the mixture was incubated for additional 20 minutes under standard EMSA conditions.
All samples were separated on 1.5% agarose gel in Tris-borate-EDTA (TBE) running buffer at room temperature, using GelRed as dye. […]

[1] = tested on: MexA, MexB, and OprM proteins; settings: sub-MIC dosages; cited from earlier work
Text: In the past years, we characterized the biological properties of a derivative of the frog-skin AMP esculentin-1a, namely Esc(1-21)-1c of sequence GIFSKLAGKKIKN^dLLI^dSGLKG-NH2 containing two D-amino acids, i.e., Leu14 and Ser17. […] Therefore, in-depth investigations are imperative to unravel the specific molecular mechanisms accounting for the downregulation of MexAB efflux pump by Esc(1-21)-1c. Here, we explored the intracellular mechanism of Esc(1-21)-1c at the molecular level by the identification of its putative interactors in P. aeruginosa. Functional proteomics approaches allowed us to ident ...

P. aeruginosa = settings: levels below the MIC; cited from earlier work
Text: (§1) In the past years, we characterized the biological properties of a derivative of the frog-skin AMP esculentin-1a, namely Esc(1-21)-1c of sequence GIFSKLAGKKIKN^dLLI^dSGLKG-NH2 containing two D-amino acids, i.e., Leu14 and Ser17. […] Furthermore, very recent studies have provided new insights into the global impact of Esc (1-21)-1c on P. ...

P. aeruginosa biofilm = settings: levels below the MIC; cited from earlier work
Text: as §1

[2] = target: T1, Q9I5H3 (probable two-component response regulator, QseB homolog) (Pseudomonas aeruginosa, UniProt Q9I5H3 1-223); experiment: EMSA; protein 5-70 uM, DNA 0.05 uM; settings: protein: recombinant; tags: N-terminal His6 (pET28a); chain copies: 2; label: none (GelRed stain); blunt
T1 sequence: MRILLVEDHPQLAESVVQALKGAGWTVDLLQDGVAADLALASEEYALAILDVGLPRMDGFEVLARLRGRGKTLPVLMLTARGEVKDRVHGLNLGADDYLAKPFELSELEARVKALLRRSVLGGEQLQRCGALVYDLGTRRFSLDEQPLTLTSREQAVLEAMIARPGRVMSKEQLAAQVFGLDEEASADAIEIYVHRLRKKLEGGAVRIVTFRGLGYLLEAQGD

His6-Q9I5H3 = target: B2; experiment: other fluorescence titration; intrinsic protein fluorescence (excitation 280 nm, emission 337 nm); 35 μM Q9I5H3 (dimeric form from gel filtration) fixed, Esc(1-21)-1c added from 1.5 to 50 µM; 50 mM Tris-HCl pH 8.0, 150 mM NaCl, 20 °C; duplicate; one site specific binding fit; settings: both partners purified
[3] = target: the molecule itself; experiment: SEC; Superdex 75 10/300 GL calibrated with standard proteins; 50 mM Tris-HCl pH 8.0, 150 mM NaCl; peaks at 7.8 mL and 11.5 mL; monomer and dimer

Question: Which results are given for “GIFSKLAGKKIKN^dLLI^dSGLKG-NH2 [Esc(1-21)-1c, derivative of the frog-skin AMP esculentin-1a containing two D-amino acids, Leu14 and Ser17]”?
Answer: Kd (Q9I5H3): 10 ± 0.98 µM; peptide concentration at which the shifted Q9I5H3–DNA complex band completely disappeared (Q9I5H3–DNA complex): 200 µM; effect on MexA, MexB, and OprM proteins [1]: significant downregulatory effect; effect with the antibiotic Aztreonam in inhibiting growth and killing P. aeruginosa (P. aeruginosa): synergic effect; effect on P. aeruginosa biofilm formation (P. aeruginosa biofilm): capability to prevent P. aeruginosa biofilm formation

B1: MexAB-OprM (MexA) promoter target duplex (dsDNA)
DNA 1: CGAGTAAACCTAATGTAAATGTGGTTGATC
DNA 2: GATCAACCACATTTACATTAGGTTTACTCG
Question: Does B1 bind [2]?
Answer: Result: binds

Question: Which Kd (His6-Q9I5H3) does the source give for GIFSKLAGKKIKN[dL]LI[dS]GLKG-NH2 (also called Esc(1-21)-1c peptide; AMP) [Esc(1-21)-1c] here?
Answer: The Kd was 10 ± 0.98 µM.

Question: With B2 as the molecule, how does the “stoichiometry N” value [3] read?
Answer: Its value is 2.

Source: PMC12563431, “The Esc(1-21)-1c Antimicrobial Peptide Inhibits a Specific Transcriptional Activator of the MexAB–OprM Efflux Pump in P. aeruginosa” (International Journal of Molecular Sciences, 2025)
